Results on three compounds are retold here after patent US10213507B2, “Compositions and methods for treating HIV-associated neurocognitive disorders” (THE FLORIDA INTERNATIONAL UNIVERSITY BOARD OF TRUSTEES, priority 2017, dated 2019).

“Also recorded” adds a separate entry of the source.

Broadly, the cell viability is the share of living cells, or the viability signal relative to a control. Read a low cell viability as more harm to the cells.

For one series, the system named is CHME-5 cells. Briefly: XTT cytotoxicity assay in CHME-5 cells. The note with it: 1 μM WA, 48 hours. In kind it is cell-based. On the procedure: (§1) FIGS. 6A-6C show Effect of WA on HIV-1 suppression and its cytotoxicity in microglial (CHME-5) cell±HIV. […] (A) p24 study; (B) LTR and (C) Cytotoxicity study: XTT assay was performed on WA treated CHME-5 cells (n=3; *, p≤0.05; ****, p≤0.001; NS-Not Significant).
(§2) Human microglial cells (CHME-5) were infected with HIV and treated with different concentrations of WA (0.5 and 1 μM). Seven days post-infection (dpi), culture supernatant was used for p24 ELISA and cell pellet was used for the […] (LTR) measurement using quantitative real-time PCR.
Background: Formazan colour is commonly taken as a measure of viable cells.

Series [1] concerns Aβ-secretion in SH-APP cells. The experiment in a line: WA BBB permeability without MENPs: Aβ1-40 ELISA of SH-APP cells in the basal chamber of the BBB trans-well. In kind it is cell-based, human. On the procedure:
(§3) FIGS. 3A-3B provide: A) Effect of WA and MENP on in-vitro BBB integrity: WA (2 μM) and MENPs (100 μg) were added in the upper chamber of the BBB model with magnet (0.8 T) placed underneath the culture plate for 3 h duration. After treatment, Transepithelial Electrical Resistance (TEER) values were calculated and compared with control; B) Aβ1-40 ELISA from supernatant from SHAPP cells: To study WA (2 μM) efficacy and BBB permeability without MENPs, Aβ1-40 specific enzyme-linked immunosorbent assay (ELISA) was performed using supernatant collected from the basal side of the BBB trans-well where SHAPP cells were seeded at the bottom of culture plate. (n=3; NS-Not Significant.)
(§4) In-vitro BBB model was developed using brain microvascular endothelial cells, astrocytes and pericytes. The integrity of BBB was examined by measuring the TEER values before and after addition of free WA (2 μM) and free MENPs (100 μg) to the apical chamber of in vitro BBB model.
On the technique in general: ELISA stands for enzyme-linked immunosorbent assay.

In the next series the test system is SH-APP cells. Briefly: MTT cytotoxicity assay in SH-APP cells. In kind it is cell-based, human. Particulars: WA 0.5 to 2.5 μM, 48 hours.
Series [2] relates to Aβ secretion by SH-APP cells. Briefly: Aβ 1-40 ELISA of culture supernatants of WA treated SH-APP cells. In kind it is cell-based, human. The protocol:
(n=3; *, p≤0.05; NS-Not Significant).
Human neuroblastoma cells transfected with APP gene (SH-APP) were cultured with different concentrations of WA (0.5 to 2.5 μM) and the culture supernatants were tested for Aβ 1-40 by ELISA.

In another series the test system is HIV. The experiment in a line: HIV LTR detection in HIV-exposed SH-APP cells. In kind it is cell-based. The note with it: WA 2 μm, HIV 100 ng, 1 dpi; 30,000 copies with HIV alone. The text has this:
(n=3; *, p≤0.05; **, p≤0.01; and ***, p≤0.001.)
AβPP-transfected SH-APP cells are susceptible to HIV infection.

Series [3] deals with in-vitro BBB model (brain microvascular endothelial cells, astrocytes and pericytes). Briefly: In-vitro BBB model integrity (TEER). In kind it is cell-based, human. The note with it: free WA 2 μM in apical chamber, external magnetic field 0.8 T, 3 h. On the procedure:
as §3, §4
Preparation and validation of BBB integrity: Established in vitro BBB model can be used. The BBB model can be constructed using primary endothelial cells (HBMEC), pericytes (HMVP) and astrocytes (HA). BBB formation and intactness can be determined by measuring the TEER using the REMS AutoSampler BBB device and permeability to fluorescein isothiocyanate-dextran (FITC dextran). […]

The test system of series [4] is Aβ-production in SH-APP cells. The experiment in a line: HIV-induced β-amyloid production in SH-APP cells by flow cytometry. In kind it is cell-based, human. Particulars: HIV 100 ng 7 days, WA 2 μM 48 hours, Aβ 1-40 specific antibody. On the procedure: FIGS. 7A-7D show quantitative analysis of β-amyloid production after 7 days of HIV infection and 48 hours of WA treatment (2 μM) on SH-APP (neuroblastoma cell line) using flow cytometry. An increase in β-amyloid production is observed in cells treated with B) HIV-100 ng; compared to A) Control.
For orientation: In flow cytometry, cells or beads pass a laser one at a time.

A further series concerns HIV-1. Briefly: HIV infection of CHME-5 microglial cells (p24 ELISA, LTR quantitative real-time PCR). In kind it is cell-based. Particulars: WA 0.5 and 1 μM, 7 dpi. On the procedure:
as §1, §2

Series [5] can be described thus: Binding of miR-107 to MENPs. In kind it is physicochemical. The note with it: 100 nM miR-107, 100 μg MENPs, PBS pH 7.4, 30 minutes. On the procedure: (§5) FIGS. 2A-2B provide miR-107 binding and release. A) % binding of miR-107 with MENP with respect to different concentrations; B) Release kinetics of miR-107 from MENP surface as a function of externally applied alternating current magnetic field strength (60 and 80 Oe) at different time points (10, 20 and 30 min).
(§6) Binding kinetics with respect to different concentrations of miR-107 was performed using 100 μg of MENPs (FIG. 2A). Sample were incubated in phosphate buffered saline (PBS) (pH-7.4) and kept on vertical rotator under constant rotation (200 rpm) for 30 minutes. […] Release kinetics of miR-107 from MENPs was studied using UV spectroscopy at 260 nm. 100 nM of miR-107 was incubated with 100 μg of MENPs in 1 mL PBS (pH 7.4) for 30 mins and its release kinetics performed using alternating current magnetic field via electromagnetic coil at various time points (i.e., 10, 20, and 30 minutes).

Series [6] can be described thus: Release of miR-107 from MENPs under alternating current magnetic field (UV spectroscopy at 260 nm). The note with it: 30 mins. In kind it is physicochemical. The protocol: as §5, §6
The target of another series is T1, σ-1 receptor (Mus musculus, UniProt O55242).
T1 construct: from tissue; host or cells: whole animal (mice), endogenous receptor
T1 sequence (O55242 whole entry): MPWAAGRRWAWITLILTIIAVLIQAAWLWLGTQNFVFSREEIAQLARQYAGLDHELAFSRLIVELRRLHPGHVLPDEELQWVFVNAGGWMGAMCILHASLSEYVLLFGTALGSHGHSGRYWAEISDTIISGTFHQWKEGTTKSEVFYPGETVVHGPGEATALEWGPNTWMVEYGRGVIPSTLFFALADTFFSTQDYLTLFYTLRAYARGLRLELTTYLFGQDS
The note with it: pre-treatment of mice; cited from earlier work.

In the series on CHME-5 cells, `CC1=C(CO)C(=O)O[C@@H]([C@@H](C)[C@H]2CC[C@H]3[C@@H]4C[C@H]5O[C@]56[C@@H](O)C=CC(=O)[C@]6(C)[C@H]4CC[C@]23C)C1` [WA, 5,6-Epoxy-4,27-dihydroxy-1-oxowitha-2,24-dienolide] registered a cell viability above 80%. Moreover, the “Aβ-secretion in SH-APP cells in basal chamber vs untreated control” value in [1] (WA 2 μM without MENP in the apical chamber) is reported as “no changes in the Aβ-secretion”. The “crossing of the BBB” value in [1] (free WA 2 μM, not bound to MENP, apical chamber) is on record as “could not cross the BBB”. In addition, in the series on SH-APP cells, the cytotoxicity entry was “do not show any cytotoxic effects; also recorded: no significant cytotoxicity”. In series [2] (2 µM WA), the “β-Amyloid production (Aβ1-40 ELISA)” value is reported as “significantly attenuates”. Further, in [2] (WA 0.5 to 2.5 μM), the “Aβ secretion (Aβ 1-40)” value is on record as “dose dependent decrease”. Besides, the “HIV induced LTR copies” value in the series with HIV is 400 copies. For the same compound, the “TEER values (BBB integrity)” value in series [3] is on record as “no difference in TEER values”. Besides, in series [4], the “HIV-induced Aβ levels” value is “significantly decreased”. Further, the “HIV-1 replication, LTR levels” value in the series on HIV-1 (cell pellet) is “significant suppression”. In addition, in the series on HIV-1 (culture supernatant), the “HIV-1 replication, p24 levels” value is “significant suppression”.

As for “miR-107: microRNA 107, inhibitor of BACE-1 expression; SEQ ID NO: 1 (pre-miRNA), SEQ ID NO: 2 (mature) (AGCAGCAUUGUACAGGGCUAUCA; listed as RNA, chemistry not given here; listed as Homo sapiens)”, the “maximum miR-107 binding to MENPs” value in series [5] was 70%. The “release of miR-107 from MENPs” value was 75% in series [6] (60 Oe alternating current magnetic field) and around 100% in [6] (100 Hz, 80 Oe alternating current magnetic field).

Turning to `CN1CCN(CCc2ccc(Cl)c(Cl)c2)CC1.Cl.Cl` [BD1063, 1-[2-(3,4-Dichlorophenyl)ethyl]-4-methylpiperazine dihydrochloride], at σ-1 receptor, the cocaine-induced convulsions result is listed as “significantly attenuated” and the “cocaine-induced locomotor stimulatory effects” value is listed as “significantly attenuated”.
